Reference: patent publication US20230390224A1, “UNITARY ORAL DOSAGE FORM IN BASE OF SPHERICAL AND/OR SPHEROIDAL SHAPED PARTICLES” (ATOMIC PHARMACEUTICS INC., priority 2022, published 2023)
Where a name gives a salt, the structure may show the parent alone.

What was measured:
[1] = cited from earlier work
[2] = Release of API from gel particles into liquid medium B (spectrophotometry; Weibull Fmax, Higuchi release rate); format: physicochemical; conditions: liquid medium B and liquid medium C
Description: To the measurements of APIs release, the APIs concentrations were determined spectrophotometrically, by sampling in a Thermo Spectronic Genesys 10 UV equipment. Each of the measurements were performed in duplicate or more trials. The wavelengths occupied will depend on each API tested (for example, 243 nm for acetaminophen, 230 nm for naproxen).
To evaluate each of the experiments carried out and adjust the concentration points during the release experiments, various methods were used: zero order models, first order, Higuchi, Hixson-Crowell, square root of the mass, root 3/2 of the mass, Weibull and Korsmeyer-Peppas. The model that best fits the concentration points during the release experiments was a Weibull model (Vasiliki Papadopoulou, Kosmas Kosmidis, Marilena Vlachou, Panos Macheras, “On the use of the Weibull function for the discernment of drug release mechanisms,” International Journal of Pharmaceutics 309 (2006) 44-50).
An example of the surprising effects of modification of these formulation design factors is shown below for the same API (acetaminophen or paracetamol), as an example of the different effects that can be achieved using the same amount of API in all formulations (120 mg of total acetaminophen in each example). […]

[3] = cited from earlier work; remark: listed apart in the source

Row | SMILES | log P [1] | release of API into the aqueous medium [2] | solubility in oily media / oil phase [3] | solubility in water [3]
1 | Cc1cccc(Nc2ccccc2C(=O)O)c1C [Mefenamic acid, mefenamic acid] | 4.2 | no release | not soluble | very poorly soluble
2 | CC(=O)Nc1ccc(O)cc1 [Acetaminophen, acetaminophen] | 4.6 |  | poorly soluble | poorly soluble
3 | CC(=O)Oc1ccccc1C(=O)O [Acetyl salicylic acid, acetyl salicylic acid] |  |  | slightly soluble | soluble
4 | CN(C)CCC(c1ccc(Cl)cc1)c1ccccn1 (stereo not shown) [Chlorphenamine maleate, chlorphenamine maleate] | 3.7 |  |  | 
5 | C=C(C)[C@@H]1CCC(C)=C[C@H]1c1c(O)cc(CCCCC)cc1O [CBD, cannabinoidiol] | 7.75 |  | highly soluble | very slightly soluble
